Assay results published in US8026258B2, “Aryloxyalkylcarbamate-type derivatives, preparation method thereof and use of same in therapeutics” (Sanofi-Aventis, priority 2004, dated 2011).

test system: not given; experiment: not given; details: not given

Compared with `CNC(=O)COC(=O)NCCOc1ccc(Cl)cc1` [Compound 1, 2-(methylamino)-2-oxoethyl{2-[(4-chlorophenyl)-oxy]ethyl}carbamate], `N#Cc1ccc(OCCNC(=O)OCC(N)=O)cc1` [Compound 11, 2-amino-2-oxoethyl (2-[(4-cyanophenyl)oxy]ethyl)-carbamate] is higher in melting point: 147 to 149 °C for the first, 204 to 206 °C for the second.

First: NC(=O)COC(=O)NCCCCOc1cccc2ccccc12 [Compound 58, 2-amino-2-oxoethyl [4-(1-naphthalenyloxy]butyl]-carbamate]
Second: NC(=O)COC(=O)N1CCC(COc2cccc3ccccc23)C1 (centres unmarked) [Compound 83, 2-amino-2-oxoethyl 3-[(1-naphthalenyloxy)methyl]-1-pyrrolidinecarboxylate]
The melting point of the first is lower: 80 to 82 °C for the first, 161 to 163 °C for the second.

Compared with `CNC(=O)COC(=O)N1CCC(Oc2ccc(-c3ccc(F)cc3)cc2)CC1` [Compound 85, 2-(methylamino)-2-oxoethyl 4-[(4′-fluoro-4-biphenyl)-oxy]-1-piperidinecarboxylate], `CNC(=O)COC(=O)N1CCC(CCOc2ccc(-c3ccc(Cl)cc3)cc2)CC1` [Compound 186, 2-(methylamino)-2-oxoethyl 4-{2-[(4′-chloro-4-biphenyl)oxy]ethyl}-1-piperidinecarboxylate] is lower in melting point: 117 to 119 °C for the first, 104 to 106 °C for the second.

First: CNC(=O)COC(=O)N1CCC(COc2ccc(Br)cc2)CC1 [Compound 120, 2-(methylamino)-2-oxoethyl 4-{[(4-bromophenyl)oxy]-methyl}-1-piperidinecarboxylate]
Second: CNC(=O)COC(=O)N1CCC(CCOc2ccc(Br)cc2)CC1 [Compound 168, 2-(methylamino)-2-oxoethyl 4-{2-[(4-bromophenyl)-oxy]ethyl}-1-piperidinecarboxylate]
The melting point of the first is higher: 163 to 165 °C for the first, 101 to 103 °C for the second.

First: NC(=O)COC(=O)N1CCC(COc2cccc3ccccc23)CC1 [Compound 137, 2-amino-2-oxoethyl 4-[(1-naphthalenyloxy)methyl]-1-piperidinecarboxylate]
Second: NC(=O)COC(=O)N1CCC(COc2ccc3cccnc3c2)CC1 [Compound 148, 2-amino-2-oxoethyl 4-[(7-quinolinyloxy)methyl]-1-piperidinecarboxylate]
The melting point of the first is lower: 135 to 136 °C for the first, 137 to 139 °C for the second.

Compared with `CNC(=O)COC(=O)N1CCC(COc2ccc(-c3ccc(C(F)(F)F)cc3)cc2)CC1` [Compound 154, 2-(methylamino)-2-oxoethyl 4-{[(4′-(trifluoromethyl)-4-biphenyl)oxy]methyl}-1-piperidinecarboxylate], `NC(=O)COC(=O)N1CCC(CCOc2ccc3ccncc3c2)CC1` [Compound 183, 2-amino-2-oxoethyl 4-[2-(7-isoquinolinyloxy)ethyl]-1-piperidinecarbamate] is lower in melting point: 197 to 199 °C for the first, 179 to 181 °C for the second.

molecular target: T1, FAAH (Fatty Acid Amide Hydrolase) (Mus musculus, UniProt O08914); experiment: Radioenzymatic FAAH inhibition assay (hydrolysis of anandamide [ethanolamine 1-3H]) in mouse brain membrane homogenates; format: biochemical; details: mouse brain membrane homogenate; anandamide 10 μM; 15 minutes at 25° C.; read-out: IC50 (concentration inhibiting by 50% the control enzyme activity of FAAH)
T1 construct: Membrane homogenates are prepared at the time of use by homogenizing the tissues in a Polytron; from tissue; host or cells: mouse brain (minus the cerebellum), membrane homogenate
T1 sequence (O08914 1-579): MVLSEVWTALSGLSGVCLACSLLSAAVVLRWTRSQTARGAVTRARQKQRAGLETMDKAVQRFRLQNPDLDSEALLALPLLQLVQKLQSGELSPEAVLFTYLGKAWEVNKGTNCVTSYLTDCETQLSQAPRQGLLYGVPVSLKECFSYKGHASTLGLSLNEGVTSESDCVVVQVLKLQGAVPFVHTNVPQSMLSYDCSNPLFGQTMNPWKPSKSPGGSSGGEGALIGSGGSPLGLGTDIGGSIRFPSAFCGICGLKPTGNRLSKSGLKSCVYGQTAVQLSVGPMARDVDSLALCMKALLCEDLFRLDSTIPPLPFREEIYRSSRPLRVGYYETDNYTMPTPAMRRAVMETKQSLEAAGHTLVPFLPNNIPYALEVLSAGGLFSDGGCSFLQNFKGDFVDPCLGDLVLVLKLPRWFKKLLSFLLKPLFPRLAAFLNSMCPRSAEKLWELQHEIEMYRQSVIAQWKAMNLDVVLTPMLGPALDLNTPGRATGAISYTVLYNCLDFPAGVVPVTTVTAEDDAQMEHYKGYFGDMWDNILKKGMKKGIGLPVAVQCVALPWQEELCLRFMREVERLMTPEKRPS
Experimental: The compounds of the invention were subjected to pharmacological tests permitting determination of their inhibitory effect on the enzyme FAAH (Fatty Acid Amide Hydrolase).
Accordingly, mouse brains (minus the cerebellum) are removed and stored at −80° C. Membrane homogenates are prepared at the time of use by homogenizing the tissues in a Polytron in a 10 mM Tris-HCl buffer (pH 8.0) containing 150 mM NaCl and 1 mM EDTA. The enzyme reaction is subsequently conducted in 70 μl of buffer containing bovine serum albumin without fatty acids (1 mg/ml). In succession, the test compounds, at various concentrations, anandamide [ethanolamine 1-^3H] (specific activity: 15-20 Ci/mmol) diluted to 10 μM with cold anandamide, and the membrane preparation (400 μg of frozen tissue per assay) are added. After 15 minutes at 25° C. the enzyme reaction is terminated by adding 140 μl of chloroform/methanol (2:1). The mixture is stirred for 10 minutes and then centrifuged for 15 minutes at 3500 g. An aliquot (30 μl) of the aqueous phase containing the ethanolamine [1-^3H] is counted by liquid scintillation.

For `NC(=O)COC(=O)NCCCCOc1cccc2ccccc12` [Compound 58, 2-amino-2-oxoethyl [4-(1-naphthalenyloxy]butyl]-carbamate], the IC50 was 470 nM.

test system: male OF1 mice; experiment: Analgesia test: PBQ (phenylbenzoquinone)-induced abdominal stretches; format: in vivo, mouse; details: oral, dose of 1 mg/kg, at 2 hours, PBQ 2 mg/kg i.p.
Experimental: The in vivo activity of the compounds of the invention was evaluated in an analgesia test.
Accordingly, intraperitoneal (i.p.) administration of PBQ (phenylbenzoquinone, 2 mg/kg in a 0.9% sodium chloride solution containing 5% of ethanol) to male OF1 mice weighing 25 to 30 g causes abdominal stretches, on average 30 twists or contractions during the period from 5 to 15 minutes after injection. The test compounds are administered orally in suspension in Tween 80 at 0.5%, 60 minutes or 120 minutes before the administration of PBQ. […] For example, compound 58 of the table reduces by 51% the number of stretches induced by PBQ, at a dose of 1 mg/kg at 2 hours.

In the case of `NC(=O)COC(=O)NCCCCOc1cccc2ccccc12` [Compound 58, 2-amino-2-oxoethyl [4-(1-naphthalenyloxy]butyl]-carbamate], the “reduction of the number of stretches induced by PBQ” value is reported as 51%.
